Assay results as given in patent US20260317324A1, “BIFUNCTIONAL COMPOUNDS FOR DEGRADING BRAF VIA UBIQUITIN PROTEOSOME PATHWAY” (Nurix Therapeutics, Inc., priority 2023, published 2026).

Columns and labels:
Type in all cases: cell-based
BRAF G469A = target: T1, BRAF G469A (Homo sapiens, UniProt P15056, G469A); assay: BRAF HiBiT degradation assay, C-terminal HiBiT-tagged BRAF G469A overexpressed in HCT-116 BRAF−/− cells (clone 34), Nano-Glo HiBiT Lytic assay; conditions: Class 2, BRAF G469A; for DC50: DC50 at 50%: fitted conc. at Y=50; for Dmax: HCT-116, percentage protein degraded at maximal compound effect relative to DMSO
T1 construct: Horizon Discovery (HCT-116 BRAF−/− cells); host or cells: HCT-116 BRAF−/− cells, clone 34, lentiviral transduction
In short: (§1)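 Luminescence from the lytic HiBiT reagent, read after 10 min at room temperature, measured tagged BRAF remaining in lentivirally transduced HCT-116 BRAF−/− cells. Compounds were tested from 1 μM to 0.01 nM in half-log steps at 0.2% DMSO. DC50 values were fitted at 50% remaining.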

BRAF V600E = target: T2, BRAF V600E (Homo sapiens, UniProt P15056, V600E); assay: BRAF HiBiT degradation assay, C-terminal HiBiT-tagged BRAF V600E A375 cells (clone 1F10), Nano-Glo HiBiT Lytic assay; conditions: A375 (BRAF V600E); for DC50: DC50 at 50%: fitted conc. at Y=50; for Dmax: A-375, percentage protein degraded at maximal compound effect relative to DMSO
T2 construct: endogenous C-terminal HiBiT fusion tag on BRAF V600E allele; endogenous in cells; host or cells: A375 clone 1F10 (CRISPR-Cas9 knock-in of the HiBiT tag; parental A375 from ATCC)
In short: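 Endogenous BRAF V600E-HiBiT A375 (1F10), 10,000 cells/well, 24 h preculture; cpd 11-pt, 1 μM–0.01 nM half-log, n=2, 0.2% DMSO; HiBiT lytic detection 10 min RT; DC50 = fitted conc at Y=50; Obs. Dmax vs DMSO.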

BRAF G466V = target: T3, BRAF G466V (Homo sapiens, UniProt P15056, G466V); assay: BRAF HiBiT degradation assay, C-terminal HiBiT-tagged BRAF G466V overexpressed in HCT-116 BRAF−/− cells (clone 8), Nano-Glo HiBiT Lytic assay; conditions: BRAF G466V; for DC50: DC50 at 50%: fitted conc. at Y=50; for Dmax: HCT-116, percentage protein degraded at maximal compound effect relative to DMSO
T3 construct: Horizon Discovery (HCT-116 BRAF−/− cells); host or cells: HCT-116 BRAF−/− cells, clone 8, lentiviral transduction
In short: as §1

BRAF D594G = target: T4, BRAF D594G (Homo sapiens, UniProt P15056, D594G); assay: BRAF HiBiT degradation assay, C-terminal HiBiT-tagged BRAF D594G overexpressed in HCT-116 BRAF−/− cells (clone 63), Nano-Glo HiBiT Lytic assay; conditions: BRAF D594G; for DC50: DC50 at 50%: fitted conc. at Y=50; for Dmax: HCT-116, percentage protein degraded at maximal compound effect relative to DMSO
T4 construct: Horizon Discovery (HCT-116 BRAF−/− cells); host or cells: HCT-116 BRAF−/− cells, clone 63, lentiviral transduction
In short: as §1

T4 sequence (P15056 whole entry D594G): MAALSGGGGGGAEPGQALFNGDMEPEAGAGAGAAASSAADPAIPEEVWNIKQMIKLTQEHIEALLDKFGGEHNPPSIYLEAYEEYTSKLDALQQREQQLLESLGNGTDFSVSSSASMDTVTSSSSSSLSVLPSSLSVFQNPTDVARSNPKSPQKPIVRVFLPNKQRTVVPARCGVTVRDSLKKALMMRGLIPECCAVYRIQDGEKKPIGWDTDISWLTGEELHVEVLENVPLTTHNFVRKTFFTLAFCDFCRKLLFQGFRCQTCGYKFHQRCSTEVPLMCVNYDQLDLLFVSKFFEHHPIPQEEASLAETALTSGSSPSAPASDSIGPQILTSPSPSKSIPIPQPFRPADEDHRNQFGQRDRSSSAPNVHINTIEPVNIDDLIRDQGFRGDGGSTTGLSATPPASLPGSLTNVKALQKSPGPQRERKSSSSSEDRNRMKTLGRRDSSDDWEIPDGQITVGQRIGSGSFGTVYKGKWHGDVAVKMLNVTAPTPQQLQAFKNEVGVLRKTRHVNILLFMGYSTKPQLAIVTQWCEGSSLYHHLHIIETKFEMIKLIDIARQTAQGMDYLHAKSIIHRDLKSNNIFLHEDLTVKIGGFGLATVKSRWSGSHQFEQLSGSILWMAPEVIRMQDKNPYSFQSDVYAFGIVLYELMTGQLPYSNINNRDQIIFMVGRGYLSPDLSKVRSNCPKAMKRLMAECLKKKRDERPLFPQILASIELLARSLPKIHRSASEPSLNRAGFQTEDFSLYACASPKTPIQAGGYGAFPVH
T3 sequence (P15056 whole entry G466V): as the sequence (P15056 whole entry D594G) above, with G466V, G594D counted along it
T2 sequence (P15056 whole entry V600E, the tested form may be a part): as the sequence (P15056 whole entry D594G) above, with G594D, V600E counted along it
T1 sequence (P15056 whole entry G469A): as the sequence (P15056 whole entry D594G) above, with G469A, G594D counted along it

With CCCS(=O)(=O)Nc1cccc(-c2nc(C(C)(C)C)sc2-c2ccnc(Nc3ccc4c(c3)CCN(C(=O)CN3CCC(c5ccc(NC6CCC(=O)NC6=O)cc5)CC3)C4)n2)c1F (racemic) [Compound 123, Rac-N-[3-(2-tert-butyl-5-{2-[(2-{2-[4-(4-{[(3R)-2,6-dioxopiperidin-3-yl]amino}phenyl)piperidin-1-yl]acetyl}-1,2,3,4-tetrahydroisoquinolin-6-yl)amino]pyrimidin-4-yl}-1,3-thiazol-4-yl)-2-fluorophenyl]propane-1-sulfonamide] the DC50 (BRAF G469A) was > 500 nM, the Dmax (BRAF G469A) was < 30% and the DC50 (BRAF V600E) was 10 to 50 nM. The Dmax (BRAF V600E) was 30 to 70%, the DC50 (BRAF G466V) was > 500 nM and the Dmax (BRAF G466V) was < 30%. For the same compound, the DC50 (BRAF D594G) was > 500 nM and the Dmax (BRAF D594G) was < 30%.

For CCN(C)S(=O)(=O)Nc1cccc(-c2nc(C(C)(C)C)sc2-c2ccnc(Nc3ccc(N4CCN(C(=O)[C@H]5CC[C@H](CN6CCc7cc(C8CCC(=O)NC8=O)ccc7C6)CC5)CC4)cn3)n2)c1F (mixture of isomers) [Compound 125, Rac-(3S)-3-(2-{[(1r,4r)-4-{4-[6-({4-[2-tert-butyl-4-(3-{[ethyl(methyl)sulfamoyl]amino}-2-fluorophenyl)-1,3-thiazol-5-yl]pyrimidin-2-yl}amino)pyridin-3-yl]piperazine-1-carbonyl}cyclohexyl]methyl}-1,2,3,4-tetrahydroisoquinolin-6-yl)piperidine-2,6-dione], the DC50 (BRAF G469A) was > 500 nM, the Dmax (BRAF G469A) was 30 to 70% and the DC50 (BRAF V600E) was 10 to 50 nM. The Dmax (BRAF V600E) was > 70%, the DC50 (BRAF G466V) was > 500 nM and the Dmax (BRAF G466V) was < 30%. For the same compound, the DC50 (BRAF D594G) was > 500 nM and the Dmax (BRAF D594G) was < 30%.

Work on CCN(C)S(=O)(=O)Nc1cccc(-c2nc(C(C)(C)C)sc2-c2ccnc(Nc3ccc(N4CCN(CC5CCN(c6ccc(C7CCC(=O)NC7=O)cn6)CC5)CC4)cn3)n2)c1F (racemic) [Compound 126, Rac-(3S)-3-{6-[4-({4-[6-({4-[2-tert-butyl-4-(3-{[ethyl(methyl)sulfamoyl]amino}-2-fluorophenyl)-1,3-thiazol-5-yl]pyrimidin-2-yl}amino)pyridin-3-yl]piperazin-1-yl}methyl)piperidin-1-yl]pyridin-3-yl}piperidine-2,6-dione] yielded a DC50 (BRAF G469A) of 10 to 50 nM, a Dmax (BRAF G469A) of 30 to 70% and a DC50 (BRAF V600E) of 10 to 50 nM. For the same compound, the Dmax (BRAF V600E) was > 70%, the DC50 (BRAF G466V) was 10 to 50 nM and the Dmax (BRAF G466V) was > 70%. For the same compound, the DC50 (BRAF D594G) was < 10 nM and the Dmax (BRAF D594G) was 30 to 70%.

In the case of CCCS(=O)(=O)Nc1cccc(-c2nc(C(C)(C)C)sc2-c2ccnc(NC3CC4(CCN(CC5CCN(c6ccc7c(=O)n(C8CCC(=O)NC8=O)ccc7c6)CC5)CC4)C3)n2)c1F (racemic) [Compound 129, Rac-N-(3-{2-tert-butyl-5-[2-({7-[(1-{2-[(3R)-2,6-dioxopiperidin-3-yl]-1-oxo-1,2-dihydroisoquinolin-6-yl}piperidin-4-yl)methyl]-7-azaspiro[3.5]nonan-2-yl}amino)pyrimidin-4-yl]-1,3-thiazol-4-yl}-2-fluorophenyl)propane-1-sulfonamide], the DC50 (BRAF G469A) is reported as > 500 nM, the Dmax (BRAF G469A) is reported as < 30% and the DC50 (BRAF V600E) is reported as 50 to 500 nM. The Dmax (BRAF V600E) was 30 to 70%, the DC50 (BRAF G466V) was > 500 nM and the Dmax (BRAF G466V) was < 30%. For the same compound, the DC50 (BRAF D594G) was > 500 nM and the Dmax (BRAF D594G) was < 30%.

For CCCS(=O)(=O)Nc1cccc(-c2nc(C(C)(C)C)sc2-c2ccnc(NC3CC4(CCN(C(=O)CN5CCC(c6ccc(NC7CCC(=O)NC7=O)cc6)CC5)CC4)C3)n2)c1F (racemic) [Compound 131, Rac-N-[3-(2-tert-butyl-5-{2-[(7-{2-[4-(4-{[(3R)-2,6-dioxopiperidin-3-yl]amino}phenyl)piperidin-1-yl]acetyl}-7-azaspiro[3.5]nonan-2-yl)amino]pyrimidin-4-yl}-1,3-thiazol-4-yl)-2-fluorophenyl]propane-1-sulfonamide], the DC50 (BRAF G469A) was > 500 nM, the Dmax (BRAF G469A) was < 30% and the DC50 (BRAF V600E) was 10 to 50 nM. The Dmax (BRAF V600E) was > 70%, the DC50 (BRAF G466V) was > 500 nM and the Dmax (BRAF G466V) was 30 to 70%. The DC50 (BRAF D594G) was > 500 nM and the Dmax (BRAF D594G) was < 30%.

CCCS(=O)(=O)Nc1cccc(-c2nc(C(C)(C)C)sc2-c2ccnc(N[C@H]3CC[C@@H](N4CCN(CC5CCN(c6ccc(C7CCC(=O)NC7=O)cn6)CC5)CC4)CC3)n2)c1F (mixture of isomers) [Compound 134, N-{3-[2-tert-butyl-5-(2-{[(1s,4s)-4-{4-[(1-{5-[(3RS)-2,6-dioxopiperidin-3-yl]pyridin-2-yl}piperidin-4-yl)methyl]piperazin-1-yl}cyclohexyl]amino}pyrimidin-4-yl)-1,3-thiazol-4-yl]-2-fluorophenyl}propane-1-sulfonamide] gave a DC50 (BRAF G469A) of 50 to 500 nM, a Dmax (BRAF G469A) of 30 to 70% and a DC50 (BRAF V600E) of 10 to 50 nM. For the same compound, the Dmax (BRAF V600E) was > 70%, the DC50 (BRAF G466V) was 10 to 50 nM and the Dmax (BRAF G466V) was 30 to 70%. For the same compound, the DC50 (BRAF D594G) was 10 to 50 nM and the Dmax (BRAF D594G) was 30 to 70%.

For CCCS(=O)(=O)Nc1cccc(-c2nc(C(C)(C)C)sc2-c2ccnc(N[C@H]3CC[C@@H](N4CCN(C(=O)C5CCN(c6ccc(C7CCC(=O)NC7=O)cn6)CC5)CC4)CC3)n2)c1F (mixture of isomers) [Compound 138, N-{3-[2-tert-butyl-5-(2-{[(1s,4s)-4-[4-(1-{5-[(3RS)-2,6-dioxopiperidin-3-yl]pyridin-2-yl}piperidine-4-carbonyl)piperazin-1-yl]cyclohexyl]amino}pyrimidin-4-yl)-1,3-thiazol-4-yl]-2-fluorophenyl}propane-1-sulfonamide], the DC50 (BRAF G469A) was < 10 nM, the Dmax (BRAF G469A) was 30 to 70% and the DC50 (BRAF V600E) was < 10 nM. For the same compound, the Dmax (BRAF V600E) was > 70%, the DC50 (BRAF G466V) was < 10 nM and the Dmax (BRAF G466V) was 30 to 70%. It also gave a DC50 (BRAF D594G) of 10 to 50 nM and a Dmax (BRAF D594G) of 30 to 70%.

With CCCS(=O)(=O)Nc1cccc(-c2nc(C(C)(C)C)sc2-c2ccnc(NC3CC4(C3)CN(C(=O)C3(F)CCN(CC5CCN(c6ccc(C7CCC(=O)NC7=O)cc6)CC5)CC3)C4)n2)c1F (racemic) [Compound 141, Rac-N-[3-(2-tert-butyl-5-{2-[(2-{1-[(1-{4-[(3R)-2,6-dioxopiperidin-3-yl]phenyl}piperidin-4-yl)methyl]-4-fluoropiperidine-4-carbonyl}-2-azaspiro[3.3]heptan-6-yl)amino]pyrimidin-4-yl}-1,3-thiazol-4-yl)-2-fluorophenyl]propane-1-sulfonamide] the DC50 (BRAF G469A) was > 500 nM, the Dmax (BRAF G469A) was < 30% and the DC50 (BRAF V600E) was 10 to 50 nM. The Dmax (BRAF V600E) was > 70%, the DC50 (BRAF G466V) was > 500 nM and the Dmax (BRAF G466V) was < 30%. For the same compound, the DC50 (BRAF D594G) was > 500 nM and the Dmax (BRAF D594G) was < 30%.

For CCCS(=O)(=O)Nc1cccc(-c2nc(C(C)(C)C)sc2-c2ccnc(NC3CC4(C3)CN(C(=O)CN3CCC5(CC3)CN(c3ccc6c(c3)C(=O)N(C3CCC(=O)NC3=O)C6=O)C5)C4)n2)c1F (racemic) [Compound 152, Rac-N-(3-{2-tert-butyl-5-[2-({2-[2-(2-{2-[(3R)-2,6-dioxopiperidin-3-yl]-1,3-dioxo-2,3-dihydro-1H-isoindol-5-yl}-2,7-diazaspiro[3.5]nonan-7-yl)acetyl]-2-azaspiro[3.3]heptan-6-yl}amino)pyrimidin-4-yl]-1,3-thiazol-4-yl}-2-fluorophenyl)propane-1-sulfonamide], the DC50 (BRAF G469A) was > 500 nM, the Dmax (BRAF G469A) was < 30% and the DC50 (BRAF V600E) was 10 to 50 nM. The Dmax (BRAF V600E) was 30 to 70%, the DC50 (BRAF G466V) was > 500 nM and the Dmax (BRAF G466V) was < 30%. For the same compound, the DC50 (BRAF D594G) was > 500 nM and the Dmax (BRAF D594G) was 30 to 70%.

With CCCS(=O)(=O)Nc1cccc(-c2nc(C(C)(C)C)sc2-c2ccnc(Nc3ccc(C4CCN(C(=O)C5CN(c6ccc(C7CCC(=O)NC7=O)cn6)C5)CC4)cc3)n2)c1F (racemic) [Compound 159, Rac-N-(3-{2-tert-butyl-5-[2-({4-[1-(1-{5-[(3R)-2,6-dioxopiperidin-3-yl]pyridin-2-yl}azetidine-3-carbonyl)piperidin-4-yl]phenyl}amino)pyrimidin-4-yl]-1,3-thiazol-4-yl}-2-fluorophenyl)propane-1-sulfonamide] the DC50 (BRAF G469A) was > 500 nM, the Dmax (BRAF G469A) was < 30% and the DC50 (BRAF V600E) was < 10 nM. For the same compound, the Dmax (BRAF V600E) was > 70%, the DC50 (BRAF G466V) was > 500 nM and the Dmax (BRAF G466V) was < 30%. For the same compound, the DC50 (BRAF D594G) was > 500 nM and the Dmax (BRAF D594G) was 30 to 70%.

CCCS(=O)(=O)Nc1cccc(-c2nc(C(C)(C)C)sc2-c2ccnc(Nc3ccc(C4CCN(C(=O)C5CCN(c6cc(C7CCC(=O)NC7=O)ccn6)CC5)CC4)cc3)n2)c1F (racemic) [Compound 163, Rac-N-(3-{2-tert-butyl-5-[2-({4-[1-(1-{4-[(3R)-2,6-dioxopiperidin-3-yl]pyridin-2-yl}piperidine-4-carbonyl)piperidin-4-yl]phenyl}amino)pyrimidin-4-yl]-1,3-thiazol-4-yl}-2-fluorophenyl)propane-1-sulfonamide] was tested, and the DC50 (BRAF G469A) was > 500 nM, the Dmax (BRAF G469A) was < 30% and the DC50 (BRAF V600E) was 50 to 500 nM. The Dmax (BRAF V600E) was 30 to 70%, the DC50 (BRAF G466V) was > 500 nM and the Dmax (BRAF G466V) was < 30%. The DC50 (BRAF D594G) was > 500 nM and the Dmax (BRAF D594G) was < 30%.
